The text below walks through data of patent publication US8022105B2, “Prevention of neutrophil recruitment” (The Brigham and Women's Hospital, Inc., priority 1999, dated 2011).

In data set [1] the test system is TNF-a-induced PMN infiltration. As to the kind of experiment: TNF-a-induced PMN infiltration into mouse dorsal air pouch. The data set is classed as in vivo. The arrangement: toxicity to the mice: dose or concentration left out as unconfirmed. Particulars: for inhibition of TNF-a-induced PMN infiltration, local air pouch delivery: local into air pouch prior to TNF-a (20 ng/mouse), ATLa2 and dexamethasone, ASA 1.0 mg/mouse. As to the method:
When injected locally into the air pouch, following injection of vehicle (900 ml PBS), murine TNF-a (20 ng/100 ml PBS) induced the infiltration of 4.8±1.1×10^6 PMN by 4 h. Dexamethasone (10 mg/air pouch), ASA (1 mg/air pouch), and ATLa2 (10 mg/air pouch) were locally administered in 900 ml PBS and prior to TNF-a. Systemic delivery of ATLa2 was by i.v. injection into the mouse tail vein (10 mg/mouse). 2.1±0.7×105 PMN were found in the air pouch 4 h after injection of vehicle (1 ml sterile PBS) alone. Values represent mean±SEM (n=3-5). *P<0.05, †P<0.15 Student's two-tailed t-test
PMN infiltration into mouse air pouch. While male BALB/c mice (6-8 wk) were anesthetized with isoflurane, dorsal air pouches were raised by injecting 3 ml of sterile air subcutaneously on days 0 and 3 (as in ref.) (Sin, Y. M., Sedgwick, A. D., Chea, E. P. & Willoughby, D. A. (1986) Ann. Rheum. Dis. 45, 873-877). On day 6 and while the mice were anesthetized with isoflurane, 10 mg of ATLa2 was delivered as a bolus injection into either the tail vein in 100 ml of sterile 0.9% saline or locally into the air pouch in 900 ml of PBS −/− (Dulbecco's Phosphate Buffered Saline without magnesium or calcium ions, BioWhittaker, Walkersville, Md.). Dexamethasone and ASA (Sigma Chemical Co., St. Louis, Mo.) were delivered locally as 10 mg and 1.0 mg doses in 900 ml of PBS −/−, respectively. Inflammation in the air pouch was induced by local injection of recombinant murine TNF-a (20 ng) (Boehringer Mannheim, Indianapolis, Ind.) dissolved in 100 ml of sterile PBS. While the mice were anesthetized with isoflurane, the air pouches were lavaged twice with 3 ml of sterile PBS 4 h after the initial TNF-a injection. Aspirates were centrifuged at 2000 rpm for 15 min at 23° C. The supernatants were removed and the cells were suspended in […] of PBS. Aliquots of the cell suspension were stained with Trypan Blue and enumerated by light microscopy. 50 ml of the resuspended aspirate cells were added to 150 ml of 30% BSA and centrifuged onto microscope slides at 2200 rpm for 4 min using a Cytofuge (StatSpin, Norwood, Mass.). Slides were allowed to air dry and were stained with Wright Giemsa stain (Sigma Chemical Co., St. Louis, Mo.) for determination of differential leukocyte counts. For microscopic analysis, tissues were obtained with a 6 mm tissue biopsy punch (Acu-Punch, Acuderm, Inc., Ft. Lauderdale, Fla.) and fixed in 10% buffered formaldehyde. Samples were then embedded in paraffin, sliced, and stained with hematoxylin-eosin.

Data set [2] concerns LTB4-induced PMN infiltration. Particulars: added topically, in vivo; cited from earlier work.
Data set [3] has as its system isolated rat aorta. The data set is described as follows: Relaxation of pre-contracted isolated rat aorta. The arrangement: relaxation as % of the level of relaxation caused by Iloprost: dose or concentration left out as unconfirmed. Particulars: for relaxation of smooth muscle: aorta pre-contracted with U46619 (25 ng/ml). As to the method:
Rats were euthanized with pentobarbital overdoses. The aorta was isolated and a pre-load of 300-400 mg given. The vessels were pre-contracted with U46619 (25 ng/ml). Relaxation was induced with addition of Iloprost, 5(R/S)-methyl-LXB4, ATLa1, or ATLa2 to a final concentration of […]. Aorta smooth muscle relaxation was measured with a force transducer and the data digitized and stored on a PC. 5(R/S)-methyl -LXB4, ATLa1, and ATLa2 caused 42.8%, 37.0%, 38.1%, and 40.0% relaxation of smooth muscle, respectively. Values represent±SEM (n=4-6).
For example, topical administration of LXA4 ([…]) induces arteriolar dilation in the hamster cheek with no change in venular diameters while systemic delivery into rats produces a vasoconstrictor response in the mesenteric bed (26). In addition, 20 min infusion of 1 or 2 mg/kg LXA4 induces renal vasorelaxation in rats without changing mean arterial pressure (27). To determine whether the increased stability of ATLa2 enhances potential vasoreactivity at the therapeutic dose found to inhibit PMN infiltration in FIGS. 2 and 5, vascular changes in response to ATLa2 were compared directly to those of Iloprost, a prostacyclin stable analog that rapidly stimulates arterial vasodilation (Grant, S. M. & Goa, K. L. (1992) Drugs 43, 899-924). Added to organ baths, ATLa2 relaxed precontracted isolated rat aorta to ˜40% of the level of relaxation caused by equimolar treatment ([…]) with Iloprost (not shown). […] In sharp contrast, injection of equimolar quantities of Iloprost elicited a maximum mean decrease of ˜28 mmHg ˜50 s post-injection, with pressure returning to baseline after ˜8 min.

The nature of data set [4]: Biostability in human whole blood. The data set is classed as in vitro ADME.
The nature of data set [5]: Biostability of LX analogs in mouse whole blood. Particulars: incubated 3 h at 37° C., LC/MS/MS.
Experimental: (§1) LXA4 (21 mM) was incubated ex vivo in mouse whole blood for 3 h. […] (B) Biostability of LXA4 and stable analogs in mouse whole blood. LXA4, 15(R/S)-methyl-LXA4 (ATLa1, which carries a racemic methyl group at C-15), and 15-epi-16-(para-fluoro)-phenoxy-LXA4(ATLa2, in which a bulky (para-fluoro)-phenoxy group replaces the w-chain at C-16) were added (see Methods) to heparinized mouse whole blood and incubated at 37° C. for 0 and 3 h. Following centrifugation at 800×g and 0° C., the plasma supernatants were drawn off and stopped in two volumes of ice cold methanol. The lipoxins were extracted by solid phase methodology and quantitated by LC/MS/MS. Values represent means±SEM (n=3-4).
(§2) Biostability of LX analogs in mouse whole blood. […] The methyl formate fractions were taken to dryness with a gentle stream of nitrogen and suspended in methanol for injection and quantitative analyses by UV spectrophotometry and LC/MS/MS.
(§3) LC/MS/MS analyses. […] Samples were suspended in methanol and injected into the HPLC component, which consisted of a SpectraSYSTEM P4000 (Thermo Separation Products, San Jose, Calif.) quaternary gradient pump, a Prodigy octadecylsilane-3 (100×2 mm, 5 mm) column (Phenomenex, Torrance, Calif.) or a LUNA C18-2 (150×2 mm, 5 mm) column, and a rapid spectra scanning SpectraSYSTEM UV2000 (Thermo Separation Products, San Jose, Calif.) UV/VIS absorbance detector. […]
Data set [6] in a line: Methyl ester hydrolysis of ATLa2 to free acid in ex vivo mouse whole blood. Particulars: within 10-15 minutes, 2.8 μM in mouse whole blood. It is filed as in vitro ADME. As to the method: FIG. 7 represents methyl ester hydrolysis of ATLa2 to free acid in ex vivo mouse whole blood. ATLa2 was incubated ex vivo in mouse whole blood (2.8 μM) for 0, 2, 5, 10, 15, or 180 minutes. The incubations were stopped by chilling the blood on ice for one minute followed by centrifugation (800×g) at 0° C. The plasma supernatant was stopped in 2 vol of ice cold methanol. The samples were prepared for analysis by solid phase extraction and the amount of free acid in the sample was quantiitated by LC/MS/MS. Within 10-15 minutes, 100% of the ATLa2 methyl ester is hydrolyzed to the free acid without loss of compound. Values represent mean±SEM (n=3).

Data set [7] in a line: Mouse arterial pressure after tail vein injection. The data set is classed as in vivo. Details: maximum mean decrease in arterial pressure: dose or concentration left out as unconfirmed. How it is done: Mouse arterial pressure was monitored with a pressure transducer via the cannulated carotid artery. […] 10 mg of ATLa2 were injected into 3 mice with no change in mean arterial pressure. Values represent mean±SEM (n=3). Arterial pressure. Male BALB/c mice (6-8 wk, 20 g) were anesthetized with pentobarbital (80 mg/kg). The trachea was isolated and a small polyethylene catheter (PE50) was introduced to maintain a patent airway. The right carotid artery was isolated and cannulated with PE 10 tubing filled with heparinized (10 units/ml) normal saline. The arterial catheter was connected to a pressure transducer (World Precision Instruments, Sarasota, Fla.) and the arterial pressure tracing was recorded continuously (Astromed MT95K2, West Warwick, R.I.). All surgical manipulations were performed using a surgical microscope (Carl Zeiss, Inc., Thomwood, N.Y.).

For data set [8] the following is noted: male, BALB/c, 3 h, 2.4 mM.
Experimental: as §1, §2, §3

“Also recorded” adds a separate entry of the source. Like-named read-outs stand apart in the source and are kept apart here.

For `CC(=O)Oc1ccccc1C(=O)O` [ASA, acetylsalicylic acid, reference compound], the “inhibition of TNF-a-induced PMN infiltration, local air pouch delivery” value (from here on “inhibition … local air pouch delivery”) in data set [1] (4 h) worked out at 69%.
Regarding `CCCCC[C@H](O)/C=C/C=C\C=C\C=C\[C@@H](O)[C@@H](O)CCCC(=O)O` [LXA4, 5S,6R,15S-trihydroxyeicosa-7E,9E,11Z,13E-tetraenoic acid], the “level of inhibition of LTB4-induced PMN recruitment compared to that of either ATLa1 or ATLa2” value in data set [2] was “less than 25%”.
As to `CCCCCC(O)C(O)C=CC=CC=CC=CC(C)(O)CCCC(=O)O` (racemic) [5(R/S)-methyl-LXB4], in data set [3], the “relaxation of smooth muscle” value was 37.0%.
On to `CCCCCC(C)(O)/C=C/C=C\C=C\C=C\[C@@H](O)[C@@H](O)CCCC(=O)O` (mixture of isomers) [ATLa1, 15(R/S)-methyl-LXA4], for which, in data set [4], the “biostability in human whole blood compared with mouse whole blood” value is given as “quantitatively similar results”. Moreover, in data set [3], the “relaxation of smooth muscle” value is 38.1%. For the same molecule, the “remaining / recoverable in mouse whole blood” value in data set [5] is given as about 90%.
As to `COC(=O)CCC[C@H](O)[C@H](O)/C=C/C=C/C=C\C=C\[C@H](O)COc1ccc(F)cc1` [ATLa2], the “ATLa2 methyl ester hydrolyzed to the free acid” value in data set [6] is given as 100%. Also, the “inhibition of TNF-a-induced PMN infiltration, i.v. delivery” value in data set [1] (i.v. tail vein before TNF-a (20 ng/mouse), 4 h) was determined as 85%. Further, in data set [1] (intra-pouch injection or i.v. prior to TNF-a), the “number of neutrophils in tissue lining of the air pouch (histology)” value is reported as “reduced”. For the same molecule, the “inhibition … local air pouch delivery” value in data set [1] (4 h) is on record as about 77%. Further, the “toxicity to the mice” value in data set [1] (local or i.v.) is “no apparent toxicity”. Moreover, the “change in mean arterial pressure” value in data set [7] ((24 nmol/mouse) tail vein injection) was “no apparent changes; also recorded: no change”. The “relaxation of smooth muscle” value in data set [3] turned out to be 40.0%. Also, the “relaxation as % of the level of relaxation caused by Iloprost” value in data set [3] (organ baths) was about 40%. Also, the “remaining / recoverable in mouse whole blood” value in data set [8] is about 100%.
On to `C[C@@H]1C[C@H]2[C@@H]3CCC4=CC(=O)C=C[C@]4(C)[C@@]3(F)[C@@H](O)C[C@]2(C)[C@@]1(O)C(=O)CO` [dexamethasone, reference compound], for which the “inhibition … local air pouch delivery” value in data set [1] (4 h) was found to be 61%.
For the molecule `CC#CCC(C)[C@H](O)/C=C/[C@@H]1[C@H]2C/C(=C/CCCC(=O)O)C[C@H]2C[C@H]1O` (stereo partly shown) [Iloprost, reference compound], the “time of maximum mean decrease post-injection” value in data set [7] (tail vein injection) is reported as about 50 s. Moreover, the “maximum mean decrease in arterial pressure” value in data set [7] (tail vein injection, (equimolar to ATLa2)) is given as about 28 mmHg. For the same molecule, in data set [3], the “relaxation of smooth muscle” value worked out at 42.8%.
